Reference: patent US8710071B2, “Compounds, compositions and methods for reducing lipid levels” (CVI Pharmaceuticals Limited, priority 2008, dated 2014)

Key:
hyperlipidemic rabbits [1] = test: Lipid lowering effects and blood chemistry in hyperlipidemic rabbits; details: for Body weight: after 14 days of drug treatment; for Body weight / ALP / ALT / AST / CK / CREA / GLU / HDL-C / LDH / LDL-C / TC / TG: mean, n = 6; for serum total cholesterol levels, treatment day 0: day 0 (before the drug treatment), n = 6, in mmol/L (unit assumed); for serum total cholesterol levels, treatment day 0 / serum total cholesterol levels, treatment day 4 / serum total cholesterol levels, treatment day 7 / serum total cholesterol levels, treatment day 10 / serum total cholesterol levels, treatment day 14: mean ± SD; for serum total cholesterol levels, treatment day 4: day 4, oral gavage once a day; for serum total cholesterol levels, treatment day 4 / serum total cholesterol levels, treatment day 7: 128(+)/128(−) 30 mg/kg, SMV/ATV 3 mg/kg; for serum total cholesterol levels, treatment day 7: day 7, oral gavage once a day; for serum total cholesterol levels, treatment day 10: day 10, doses increased after day 7 to 60 mg/kg (128(+)/128(−)) and 10 mg/kg (SMV/ATV), in mmol/L (unit assumed); for serum total cholesterol levels, treatment day 14: day 14, doses increased after day 7 to 60 mg/kg (128(+)/128(−)) and 10 mg/kg (SMV/ATV); for ALP / ALT / AST / CK / CREA / GLU / HDL-C / LDH / LDL-C / TC / TG: serum after 14 days of drug treatment
Procedure: (§4) Forty-two male Japanese rabbits were fed the cholesterol enriched rabbit diet for two weeks to induce hypercholesterolemia. […] Serum samples were collected at day 0 (before the drug treatment) and day 7. […] All tested animals were sacrified at the end of a total of 14 days treatment and serum samples were analyzed for TC, LDL-C, TG, and HDL-C. In addition to lipid profiles, a number of biochemical parameters were also analyzed to aseesee the effects of drug treatments on liver function, muscle function, kidney function, and heart function.

[2] = test system: acetyl coenzyme A carboxylase (ACC); test: ACC phosphorylation in HepG2 cells, Western blot; assay type: cell-based, human; details: 20 μM, 1, 2, and 3 days (FIG. 12)
Procedure: HepG2 cells were treated with 20 μg/ml14R-(+)-THP for 0.5, 2, or 8 hours. Cells were lysed, and 50 μg protein from each sample was subjected to SDS-PAGE, followed by Western blotting using anti-phosphorylated ACC (Cell Signaling) and subsequently reprobed with antibody against β-actin.
(§1) Cells were harvested after 1, 2, and 3 days treatment and western blot analysis was conducted using antibodies directed to LDLR and PCSK9. Chicken anti-LDLR was purchased from Abeam, the mouse anti-PCSK9 was purchased from Cayman Chemicals, and anti-pACC was purchased from Cell Signaling.

PCSK9 = PCSK9 protein expression in HepG2 cells, Western blot; assay type: cell-based, human; details: 20 μM, 1, 2, and 3 days
Procedure: as §1
(§2) To determine whether the stimulatory effects of statins on LDLR protein expression could be enhanced by some new compounds invented herein, HepG2 cells were untreated or treated with a low dose of rosuvastatin (RSV) at 0.3 and 1 uM concentration in the absence or the presence of Compound 127(+), or treated with low concentrations of Compound 127(+) alone for 2 days. Western blot analysis was conducted to examine LDLR and PCSK9 protein levels. Compound 127(+) is the single enantiomer of compound 127 with a positive optical rotation. […] Furthermore, the inducing effects of RSV on PCSK9 protein levels were anatagonized by compound 127(+).
(§3) Chicken anti-LDLR was purchased from Abeam and the mouse anti-PCSK9 was purchased from Cayman Chemicals. HepG2 cells cultured in 60-mm dishes were incubated overnight in medium containing 0.5% fetal bovine serum prior to the addition of compounds at 20 uM concentration for 1-3 days. Total cell lysate was isolated and 50 μg of protein was separated on SDS-PAGE and transferred to nitrocellulose membrane for immunoblotting with anti-LDLR, anti-PCSK9, and anti-p-ACC.

LDLR = LDLR protein expression in HepG2 cells, Western blot; assay type: cell-based, human; details: 20 μM, 1, 2, and 3 days
Procedure: as §1, §2, §3

hyperlipidemic rabbits [3] = details: rabbit, in vivo
Procedure: as §4

LDLR mRNA = LDLR mRNA expression in HepG2 cells, quantitative real-time RT-PCR; assay type: cell-based, human; details: indicated concentrations, 24 hours (FIG. 15A)
Procedure: Activities of some compounds of Formulas I, II, III, and IV on LDLR mRNA expression were determined. HepG2 cells were treated with new compounds individually at a dose less than or equal to 10 μM for 24 hours. Total RNA was harvested for quantitative real-time RT-PCR analysis using the method described in Example 16B. […] In these experiments, berberine chloride was included for comparison.
The time-dependent effects of compounds of Formula I, II, III, and IV on the upregulation of LDLR mRNA and the inhibition of PCSK9 mRNA expression were examined (Horton J D, Cohen J C, Hobbs H I T. “Molecular biology of PCSK9: its role in LDL metabolism” TRENDS in Biochemical Sciences 2007; 32:71-77). HepG2 cells were treated with new compounds individually at 20 uM dose for 1 day, 2 day, and 3 days. Total RNA was isolated and 2 μg was used to generate cDNA in a reaction containing random primers and M-MLV at 37° C. for 1 hour in a volume of 25 μl. Real-time PCR was performed on the cDNA using MCEP REALPLEX 2 SYSTEM (Eppendorf) and Universal MasterMix (Applied Biosystems). Human LDLR, PCSK9, and GAPDH Pre-Developed TaqMan Assay Reagents (Applied Biosystems) were used to assess the levels of mRNA expressions in HepG2. The levels of LDLR mRNA or PCSK9 mRNA were normalized to that of GAPDH. Each RNA samples was assayed in triplicate. The abundance of LDLR mRNA or PCSK9 mRNA in untreated cells was defined as 1, and the amounts of LDLR mRNA or PCSK9 from compound-treated cells were plotted relative to that value (FIG. 10). The data shown are mean±s.d.
Total RNA was harvested for quantitative real-time RT-PCR analysis using method described in Examples 16B.
The effects of 23 compounds on the mRNA expressions of LDLR and PCSK9 were examined using quantitative real-time RT-PCR assays. HepG2 cells were treated with various compounds at 10 and 40 uM concentrations for 24 hours. Total RNA was isolated and […] was used to generate cDNA in a reaction containing random primers and M-MLV at 37° C. for 1 h in a volume of 25 μl. Real-time PCR was performed on the cDNA using MCEP REALPLEX 2 SYSTEM (Eppendorf) and Universal MasterMix (Applied Biosystems). Human LDLR, PCSK9, and GAPDH Pre-Developed TaqMan Assay Reagents (Applied Biosystems) were used to assess the levels of mRNA expressions in HepG2. The levels of LDLR and PCSK9 mRNA were normalized to that of GAPDH. Each RNA samples was assayed in duplicate. The fold activity was calculated by dividing mRNA abundance in compound treated cells with that of control.

PCSK9 mRNA = PCSK9 mRNA expression in HepG2 cells, quantitative real-time RT-PCR; assay type: cell-based, human; details: indicated concentrations, 24 hours (FIG. 15B)
Procedure: The time-dependent effects of compounds of Formula I, II, III, and IV on the upregulation of LDLR mRNA and the inhibition of PCSK9 mRNA expression were examined (Horton J D, Cohen J C, Hobbs H I T. “Molecular biology of PCSK9: its role in LDL metabolism” TRENDS in Biochemical Sciences 2007; 32:71-77). HepG2 cells were treated with new compounds individually at 20 uM dose for 1 day, 2 day, and 3 days. Total RNA was isolated and 2 μg was used to generate cDNA in a reaction containing random primers and M-MLV at 37° C. for 1 hour in a volume of 25 μl. Real-time PCR was performed on the cDNA using MCEP REALPLEX 2 SYSTEM (Eppendorf) and Universal MasterMix (Applied Biosystems). Human LDLR, PCSK9, and GAPDH Pre-Developed TaqMan Assay Reagents (Applied Biosystems) were used to assess the levels of mRNA expressions in HepG2. The levels of LDLR mRNA or PCSK9 mRNA were normalized to that of GAPDH. Each RNA samples was assayed in triplicate. […]
Total RNA was harvested for quantitative real-time RT-PCR analysis using method described in Examples 16B. […]
The effects of 23 compounds on the mRNA expressions of LDLR and PCSK9 were examined using quantitative real-time RT-PCR assays. […] The fold activity was calculated by dividing mRNA abundance in compound treated cells with that of control.

COc1ccc2c(c1)CCN1Cc3c(ccc(OC)c3OS(=O)(=O)c3cccc(F)c3)CC21 (single isomer, unassigned) [128(+)]
Body weight (hyperlipidemic rabbits [1]): 2.6 kg
serum total cholesterol levels, treatment day 0 (hyperlipidemic rabbits [1]): 28.6 ± 6.7
serum total cholesterol levels, treatment day 4 (hyperlipidemic rabbits [1]): 31.9 ± 7.5
serum total cholesterol levels, treatment day 7 (hyperlipidemic rabbits [1]): 33.9 ± 7.2
serum total cholesterol levels, treatment day 10 (hyperlipidemic rabbits [1]): 33.8 ± 7.8
serum total cholesterol levels, treatment day 14 (hyperlipidemic rabbits [1]): 34.2 ± 7.4
ALP (hyperlipidemic rabbits [1]): 165.2 IU/L
ALT (hyperlipidemic rabbits [1]): 68.7 IU/L
AST (hyperlipidemic rabbits [1]): 20.8 IU/L
CK (hyperlipidemic rabbits [1]): 1172.3 U/L
CREA (hyperlipidemic rabbits [1]): 97.2 µmol/L
GLU (hyperlipidemic rabbits [1]): 7.9 mmol/L
HDL-C (hyperlipidemic rabbits [1]): 3.6 mmol/L
LDH (hyperlipidemic rabbits [1]): 47.7 IU/L
LDL-C (hyperlipidemic rabbits [1]): 29.7 mmol/L
TC (hyperlipidemic rabbits [1]): 34.2 mmol/L
TG (hyperlipidemic rabbits [1]): 1.0 mmol/L
phosphorylation of ACC [2]: induced ACC phosphorylation
expression of PCSK9 (protein) (PCSK9): strongly inhibited
LDLR protein levels (LDLR): effectively increased

COc1ccc2c(c1)CCN1Cc3c(ccc(OC)c3OS(=O)(=O)c3cccc(F)c3)CC21 (single isomer, unassigned) [128(−)]
TC and LDL-C reduction (hyperlipidemic rabbits [1]; 14 days treatment, summary in words): strong TC and LDL-C reduction
Body weight (hyperlipidemic rabbits [1]): 2.7 kg
serum total cholesterol levels, treatment day 0 (hyperlipidemic rabbits [1]): 28.5 ± 6.3
serum total cholesterol levels, treatment day 4 (hyperlipidemic rabbits [1]): 29.9 ± 8.0
serum total cholesterol levels, treatment day 7 (hyperlipidemic rabbits [1]): 29.0 ± 7.9
serum total cholesterol levels, treatment day 10 (hyperlipidemic rabbits [1]): 27.9 ± 5.2
serum total cholesterol levels, treatment day 14 (hyperlipidemic rabbits [1]): 29.7 ± 4.9
ALP (hyperlipidemic rabbits [1]): 155.5 IU/L
ALT (hyperlipidemic rabbits [1]): 50.2 IU/L
AST (hyperlipidemic rabbits [1]): 20.8 IU/L
CK (hyperlipidemic rabbits [1]): 997.5 U/L
CREA (hyperlipidemic rabbits [1]): 105.2 µmol/L
GLU (hyperlipidemic rabbits [1]): 7.9 mmol/L
HDL-C (hyperlipidemic rabbits [1]): 3.5 mmol/L
LDH (hyperlipidemic rabbits [1]): 50.3 IU/L
LDL-C (hyperlipidemic rabbits [1]): 24.4 mmol/L
TC (hyperlipidemic rabbits [1]): 29.7 mmol/L
TG (hyperlipidemic rabbits [1]): 0.9 mmol/L
phosphorylation of ACC [2]: induced ACC phosphorylation
expression of PCSK9 (protein) (PCSK9): strongly inhibited
adverse effect / toxicities (hyperlipidemic rabbits [3]): absence of any adverse effect
LDLR protein levels (LDLR): effectively increased

COc1cc2c(cc1OC)C1Cc3ccc(OC)c(OS(=O)(=O)c4ccccc4)c3CN1CC2 (centres unmarked) [Compound 91, 2,3,10-trimethoxy-5,6,7,8,13,13a-hexahydroisoquinolino[2,1-b]isoquinolin-9-yl benzenesulfonate]
LDLR mRNA expression (LDLR mRNA): dose-dependently increases
PCSK9 mRNA expression (PCSK9 mRNA): inhibits
